“And” between values parts separate entries of the source, which are not always exact repeats. Equal values may be shown once.

The nature of one series: logP by HPLC on reversed-phase columns (C18), EEC Directive 79/831 Annex V.A8. The series is classed as physicochemical. The following applies: HPLC reversed-phase C18, acidic range pH 2.7; Preparation Examples (intermediates). How it is done: The logP values reported in the table above and in the Preparation Examples were determined in accordance with EEC Directive 79/831 Annex V.A8 by HPLC (High Performance Liquid Chromatography) on reversed-phase columns (C18), with the following methods:
The LC-MS determination in the acidic range is carried out at pH 2.7 using the mobile phases 0.1% aqueous formic acid and acetonitrile (contains 0.1% formic acid), linear gradient from 10% acetonitrile to 95% acetonitrile
Calibration was carried out using unbranched alkan-2-ones (having from 3 to 16 carbon atoms) with known logP values (the logP values were determined by the retention times using linear interpolation between two successive alkanones).
Take “1-(3-Chloropyridin-2-yl)-3-{(E)-2-[5-(trifluoromethyl)-2H-tetrazol-2-yl]vinyl}-1H-pyrazole-5-carboxylic acid/1-(3-chloropyridin-2-yl)-3-{(E)-2-[5-(trifluoromethyl)-1H-tetrazol-1-yl]vinyl}-1H-pyrazole-5-carboxylic acid [Example No. XIV]”: the logP (commonly the decadic logarithm of the partition coefficient of the neutral form, usually between octanol and water) was 2.79 and 2.86.

Staying with this series, now noted: pH 2.7, log P.
The compound `CNC(=O)c1cc(Br)cc(C)c1NC(=O)c1cc(C(=O)Nc2ccc(C(F)(F)F)cc2)nn1-c1ncccc1Cl` [Example 2] came in with a chromatographic logP of 3.53.

For `CNC(=O)c1cc(Cl)cc(C)c1NC(=O)c1cc(C(=O)Nc2ccc(C(F)(F)F)cc2)nn1-c1ncccc1Cl` [Example 5], the chromatographic logP is 3.46. In turn, `CNC(=O)c1cc(Cl)cc(C)c1NC(=O)c1cc(C(=O)Nc2cc(C(F)(F)F)cc(C(F)(F)F)c2)nn1-c1ncccc1Cl` [Example 6] had a chromatographic logP of 4.16. `CNC(=O)c1cc(C#N)cc(C)c1NC(=O)c1cc(C#Cc2ccc(OC)cc2)nn1-c1ncccc1Cl` [Example 8] registered a chromatographic logP of 3.11. In turn, `Cc1cc(Cl)cc(C(N)=O)c1NC(=O)c1cc(C#Cc2ccc(OC(F)(F)F)cc2)nn1-c1ncccc1Cl` [Example 9] yielded a chromatographic logP of 3.94.

The compound `Cc1cc(C#N)cc(C(=O)NC(C)(C)C)c1NC(=O)c1cc(C(=O)Cn2nnc(C(F)(F)F)n2)nn1-c1ncccc1Cl` [Example 16] showed a chromatographic logP of 3.66.

`CNC(=O)c1cc(Cl)cc(C)c1NC(=O)c1cc(N2CCN(Cc3ccc(Cl)nc3)C2=O)nn1-c1ncccc1Cl` [Example 28] had a chromatographic logP of 2.64. `CNC(=O)c1cc(C#N)cc(C)c1NC(=O)c1cc(N2CCN(Cc3ccc(Cl)nc3)C2=O)nn1-c1ncccc1Cl` [Example 29] registered a chromatographic logP of 2.31. Consider `Cc1cc(C#N)cc(C(=O)NC(C)(C)C)c1NC(=O)c1cc(N2CCN(Cc3ccc(Cl)nc3)C2=O)nn1-c1ncccc1Cl` [Example 30], for which the chromatographic logP stood at 3.02. `Cc1cc(Cl)cc(C(N)=O)c1NC(=O)c1cc(C(=O)C(=O)c2ccc(Cl)cc2Cl)nn1-c1ncccc1Cl` [Example 31] registered a chromatographic logP of 3.51. For the compound `CNC(=O)c1cc(Cl)cc(C)c1NC(=O)c1cc(CNS(=O)(=O)c2ccccc2Cl)nn1-c1ncccc1Cl` [Example 37], the chromatographic logP worked out at 2.58. On the same count and under the same terms, for `Cc1cc(Cl)cc(C(=O)NC(C)C)c1NC(=O)c1cc(CNS(=O)(=O)c2ccccc2Cl)nn1-c1ncccc1Cl` [Example 38] the value was 3.06; for `Cc1cc(Cl)cc(C(=O)NC2CC2)c1NC(=O)c1cc(CNS(=O)(=O)c2ccccc2Cl)nn1-c1ncccc1Cl` [Example 39], 2.8; for `Cc1cc(Cl)cc(C(=O)NC(C)C)c1NC(=O)c1cc(CNS(=O)(=O)c2cccc(Cl)c2)nn1-c1ncccc1Cl` [Example 43], 3.25.

`Cc1cc(Cl)cc(C(=O)NC(C)C)c1NC(=O)c1cc(CNS(=O)(=O)c2ccccc2)nn1-c1ncccc1Cl` [Example 44] yielded a chromatographic logP of 2.84. The same measure, in the same setting: to `Cc1cc(Cl)cc(C(=O)NC(C)C)c1NC(=O)c1cc(CNS(=O)(=O)c2ccccc2C(F)(F)F)nn1-c1ncccc1Cl` [Example 45] belongs 3.26; to `Cc1cc(Cl)cc(C(=O)NC(C)C)c1NC(=O)c1cc(CNS(=O)(=O)c2ccc(Cl)cc2)nn1-c1ncccc1Cl` [Example 47], 3.25. On to `Cc1cc(Cl)cc(C(=O)NC(C)C)c1NC(=O)c1cc(CNS(=O)(=O)c2cccc(C(F)(F)F)c2)nn1-c1ncccc1Cl` [Example 48], for which the chromatographic logP amounted to 3.43. Same read-out and setting: for `Cc1cc(Cl)cc(C(=O)NC(C)C)c1NC(=O)c1cc(CNS(=O)(=O)Cc2ccccc2C(F)(F)F)nn1-c1ncccc1Cl` [Example 49] the value was 2.62; for `Cc1cc(Cl)cc(C(=O)NC(C)C)c1NC(=O)c1cc(CNS(=O)(=O)Cc2ccc(C(F)(F)F)cc2)nn1-c1ncccc1Cl` [Example 50], 2.28; for `Cc1cc(Cl)cc(C(=O)NC(C)C)c1NC(=O)c1cc(CNS(=O)(=O)Cc2cccc(C(F)(F)F)c2)nn1-c1ncccc1Cl` [Example 51], 3.42. In turn, `CNC(=O)c1cc(C#N)cc(C)c1NC(=O)c1cc(Nc2cccc(C(F)(F)F)n2)nn1-c1ncccc1Cl` [Example 69] came in with a chromatographic logP of 2.89. Still for that read-out and setting: for `CNC(=O)c1cc(C#N)cc(C)c1NC(=O)c1cc(Nc2cc(C(F)(F)F)ccn2)nn1-c1ncccc1Cl` [Example 70] the value was 2.76; for `Cc1cc(C#N)cc(C(=O)NC(C)C)c1NC(=O)c1cc(Nc2ccc(C(F)(F)F)c(C(F)(F)F)c2)nn1-c1ncccc1Cl` [Example 72], 3.91. For the compound `Cc1cc(C#N)cc(C(=O)NC(C)C)c1NC(=O)c1cc(Nc2cccc(C(F)(F)F)c2)nn1-c1ncccc1Cl` [Example 75], the chromatographic logP stood at 3.66.

Still in this series, the particulars now being: reversed-phase HPLC column (C18), pH 2.7, HPLC reversed-phase C18, acidic range pH 2.7, 0.1% aqueous formic acid/acetonitrile; table of compounds of formula (I); read-out: log P.
Consider `Cc1cc(Cl)cc(C(=O)NC(C)C)c1NC(=O)c1cc(C(=O)Nc2cc(C(F)(F)F)cc(C(F)(F)F)c2)nn1-c1ncccc1Cl` [Example 7], for which the chromatographic logP was determined as 4.62. Take `CNC(=O)c1cc(C#N)cc(C)c1NC(=O)c1cc(N2CCN(c3cc(C(F)(F)F)cc(C(F)(F)F)c3)C2=O)nn1-c1ncccc1Cl` [Example 23]: the chromatographic logP turned out to be 4.08.

Take `Cc1cc(Cl)cc(C(=O)NC(C)(C)C)c1NC(=O)c1cc(N2CCN(c3cc(C(F)(F)F)cc(C(F)(F)F)c3)C2=O)nn1-c1ncccc1Cl` [Example 24]: the chromatographic logP stood at 5.29. As for `Cc1cc(C#N)cc(C(=O)NC(C)(C)C)c1NC(=O)c1cc(N2CCN(c3cc(C(F)(F)F)cc(C(F)(F)F)c3)C2=O)nn1-c1ncccc1Cl` [Example 25], the chromatographic logP came to 4.84. The same measure, in the same setting: to `Cc1cc(Cl)cc(C(=O)NC(C)C)c1NC(=O)c1cc(N2CCN(c3cc(C(F)(F)F)cc(C(F)(F)F)c3)C2=O)nn1-c1ncccc1Cl` [Example 26] belongs 4.97.

As for `Cc1cc(C#N)cc(C(=O)NC(C)C)c1NC(=O)c1cc(N2CCN(c3cc(C(F)(F)F)cc(C(F)(F)F)c3)C2=O)nn1-c1ncccc1Cl` [Example 27], the chromatographic logP is 4.55. The same measure, in the same setting: to `Cc1cc(Cl)cc(C(=O)NC(C)C2CC2)c1NC(=O)c1cc(CNS(=O)(=O)c2cc(C(F)(F)F)cc(C(F)(F)F)c2)nn1-c1ncccc1Cl` (stereo not drawn) [Example 34] belongs 4.38; to `Cc1cc(Cl)cc(C(=O)NC(C)C)c1NC(=O)c1cc(CNS(=O)(=O)c2cc(C(F)(F)F)cc(C(F)(F)F)c2)nn1-c1ncccc1Cl` [Example 35], 4.1; to `CNC(=O)c1cc(Cl)cc(C)c1NC(=O)c1cc(CNS(=O)(=O)c2cc(C(F)(F)F)cc(C(F)(F)F)c2)nn1-c1ncccc1Cl` [Example 36], 3.62.

Consider `Cc1cc(Cl)cc(C(=O)NC(C)C)c1NC(=O)c1cc(CNS(=O)(=O)c2cc(C(F)(F)F)ccc2C(F)(F)F)nn1-c1ncccc1Cl` [Example 40], for which the chromatographic logP amounted to 3.84. On the same count and under the same terms, to `Cc1cc(Cl)cc(C(=O)NC(C)C)c1NC(=O)c1cc(CNS(=O)(=O)c2c(C(F)(F)F)cccc2C(F)(F)F)nn1-c1ncccc1Cl` [Example 41] belongs 3.63. On the same count and under the same terms, to `Cc1cc(Cl)cc(C(=O)NC(C)C)c1NC(=O)c1cc(CNS(=O)(=O)c2ccc(C(F)(F)F)cc2C(F)(F)F)nn1-c1ncccc1Cl` [Example 42] belongs 3.94. The same measure, in the same setting: for `Cc1cc(Cl)cc(C(=O)NC(C)C)c1NC(=O)c1cc(CNS(=O)(=O)Cc2cc(C(F)(F)F)cc(C(F)(F)F)c2)nn1-c1ncccc1Cl` [Example 53] the value was 3.95; for `Cc1cc(Cl)cc(C(=O)NC(C)C)c1NC(=O)c1cc(CNS(=O)(=O)c2ccc(C(F)(F)F)c(C(F)(F)F)c2)nn1-c1ncccc1Cl` [Example 54], 4; for `Cc1cc(Cl)cc(C(=O)NC(C)C)c1NC(=O)c1cc(CN(Cc2cc(C(F)(F)F)cc(C(F)(F)F)c2)S(C)(=O)=O)nn1-c1ncccc1Cl` [Example 57], 4.26. On to `Cc1cc(Cl)cc(C(=O)NC(C)C2CC2)c1NC(=O)c1cc(CN(Cc2cc(C(F)(F)F)cc(C(F)(F)F)c2)S(C)(=O)=O)nn1-c1ncccc1Cl` (stereo not drawn) [Example 58], for which the chromatographic logP turned out to be 4.54. Still for that read-out and setting: to `Cc1cc(C#N)cc(C(=O)NC(C)C)c1NC(=O)c1cc(CN(Cc2cc(C(F)(F)F)cc(C(F)(F)F)c2)S(C)(=O)=O)nn1-c1ncccc1Cl` [Example 60] belongs 3.91; to `Cc1cc(C#N)cc(C(=O)NC(C)C2CC2)c1NC(=O)c1cc(CN(Cc2cc(C(F)(F)F)cc(C(F)(F)F)c2)S(C)(=O)=O)nn1-c1ncccc1Cl` (stereo not drawn) [Example 61], 4.12; to `Cc1cc(C#N)cc(C(=O)NC2CC2)c1NC(=O)c1cc(CN(Cc2cc(C(F)(F)F)cc(C(F)(F)F)c2)S(C)(=O)=O)nn1-c1ncccc1Cl` [Example 62], 3.64.

The series is the same for the next values; noted with them: reversed-phase HPLC column (C18), pH 2.7, HPLC reversed-phase C18, acidic range pH 2.7; Preparation Examples (intermediates); read-out: logP.
Regarding `CN(Cc1cc(C(=O)O)n(-c2ncccc2Cl)n1)S(=O)(=O)Cc1cc(C(F)(F)F)cc(C(F)(F)F)c1` [Example No. III-1, 3-{[{[3,5-bis(trifluoromethyl)benzyl]sulphonyl}(methyl)amino]methyl}-1-(3-chloropyridin-2-yl)-1H-pyrazole-5-carboxylic acid], the chromatographic logP is 3.07.

For the compound `O=C(C(=O)c1ccc(Cl)cc1Cl)c1cc(C(=O)O)n(-c2ncccc2Cl)n1` [Example No. III-2, 1-(3-chloropyridin-2-yl)-3-[(2,4-dichlorophenyl)(oxo)acetyl]-1H-pyrazole-5-carboxylic acid], the chromatographic logP worked out at 2.78.

With `O=C(O)c1cc(C#Cc2ccc(OC(F)(F)F)cc2)nn1-c1ncccc1Cl` [Example No. III-3, 1-(3-chloropyridin-2-yl)-3-{[4-(trifluoromethoxy)phenyl]ethynyl}-1H-pyrazole-5-carboxylic acid], the chromatographic logP was determined as 3.36.

For the origin of these results see patent US8791139B2, “Anthranilic diamide derivatives” (Bayer Cropscience AG, priority 2010, dated 2014).
